Assay: mn = molality of the nth substance listed, in mol/kg
Settings: 101.33 kPa, Liquid; for speed of sound: Frequency=2 MHz, Linear variable-path acoustic interferometer; for mass density: Pycnometric method

O=C([O-])c1ccccc1O.[Na+] [sodium salicylate] + O
Settings | mass density, 288.15 K [kg/m3] | mass density, 298.15 K [kg/m3] | mass density, 308.15 K [kg/m3] | speed of sound, 288.15 K [m/s] | speed of sound, 298.15 K [m/s] | speed of sound, 308.15 K [m/s]
m1 = 0.01 | – | – | 994.69 | – | – | 1520.8
m1 = 0.0101 | 999.8 | 997.73 | – | 1466.8 | 1497.6 | –
m1 = 0.0221 | 1000.62 | 998.51 | 995.46 | 1467.9 | 1498.8 | 1521.9
m1 = 0.0307 | 1001.19 | 999.07 | – | 1468.7 | 1499.6 | –
m1 = 0.0333 | – | – | 996.16 | – | – | 1523
m1 = 0.04 | – | – | 996.59 | – | – | 1523.6
m1 = 0.0448 | 1002.19 | 1000 | – | 1470 | 1501 | –
m1 = 0.0451 | – | – | 996.9 | – | – | 1524.2
m1 = 0.0501 | 1002.51 | 1000.34 | 997.24 | 1470.5 | 1501.5 | 1524.6
m1 = 0.0546 | 1002.85 | 1000.67 | – | 1470.8 | 1501.9 | –
m1 = 0.0572 | – | – | 997.65 | – | – | 1525.3
m1 = 0.06 | 1003.2 | 1001.01 | – | 1471.4 | 1502.4 | –
m1 = 0.0667 | 1003.66 | – | – | 1472 | – | –
m1 = 0.0702 | – | – | 998.5 | – | – | 1526.5
m1 = 0.0704 | 1003.92 | 1001.66 | – | 1472.3 | 1503.5 | –
m1 = 0.0802 | 1004.55 | 1002.35 | 999.1 | 1473.2 | 1504.4 | 1527.5
m1 = 0.0848 | 1004.87 | 1002.59 | – | 1473.6 | 1504.9 | –
m1 = 0.0857 | – | – | 999.47 | – | – | 1528
m1 = 0.0906 | 1005.23 | – | 999.8 | 1474.2 | – | 1528.4
m1 = 0.0907 | – | 1002.99 | – | – | 1505.4 | –
m1 = 0.0951 | – | 1003.26 | 1000.07 | – | 1505.8 | 1528.9
m1 = 0.1018 | – | 1003.68 | – | – | 1506.5 | –
m1 = 0.1019 | 1006 | – | – | 1475.2 | – | –
m1 = 0.1023 | – | – | 1000.5 | – | – | 1529.6

Source: the NIST ThermoML archive (doi:10.1016/j.jct.2017.08.002)
